Test results from patent publication US8324211B2, “Inhibitors of bruton's tyrosine kinase” (Roche Palo Alto LLC, priority 2008, dated 2012).

Molecular target: T1, Btk enzyme (His-tagged, full-length) (Homo sapiens, UniProt Q06187)
T1 construct: 5-10 nM Btk enzyme (His-tagged, full-length); His
Assay: Bruton's Tyrosine Kinase (Btk) Inhibition Assay (33P filtration capture)
Type: biochemical
Conditions: 100 μM ATP, 30 μM peptide substrate, 30 min at 30° C.
Excerpt: Bruton's Tyrosine Kinase (Btk) Inhibition Assay
The assay is a capture of radioactive ^33P phosphorylated product through filtration. The interactions of Btk, biotinylated SH2 peptide substrate (Src homology), and ATP lead to phosphorylation of the peptide substrate. Biotinylated product is bound streptavidin sepharose beads. All bound, radiolabeled products are detected by scintillation counter.
Plates assayed are 96-well polypropylene (Greiner) and 96-well 1.2 μm hydrophilic PVDF filter plates (Millipore). Concentrations reported here are final assay concentrations: 10-100 μM compounds in DMSO (Burdick and Jackson), 5-10 nM Btk enzyme (His-tagged, full-length), 30 μM peptide substrate (Biotin-Aca-AAAEEIYGEI-NH2), 100 μM ATP (Sigma), 8 mM imidazole (Sigma, pH 7.2), 8 mM glycerol-2-phosphate (Sigma), 200 μM EGTA (Roche Diagnostics), 1 mM MnCl2 (Sigma), 20 mM MgCl2 (Sigma), 0.1 mg/ml BSA (Sigma), 2 mM DTT (Sigma), 1 μCi^33P ATP (Amersham), 20% streptavidin sepharose beads (Amersham), 50 mM EDTA (Gibco), 2 M NaCl (Gibco), 2 M NaCl w/1% phosphoric acid (Gibco), microscint-20 (Perkin Elmer).
IC50 determinations are calculated from 10 data points per compound utilizing data produced from a standard 96-well plate assay template. One control compound and seven unknown inhibitors were tested on each plate and each plate was run twice. Typically, compounds were diluted in half-log starting at 100 μM and ending at 3 nM.The control compound was staurosporine. Background was counted in the absence of peptide substrate. Total activity was determined in the presence of peptide substrate. The following protocol was used to determine Btk inhibition. • 1) Sample preparation: The test compounds were diluted at half-log increments in assay buffer (imidazole, glycerol-2-phosphate, EGTA, MnCl2, MgCl2, BSA). • 2) Bead preparation […]

T1 sequence (Q06187 whole entry): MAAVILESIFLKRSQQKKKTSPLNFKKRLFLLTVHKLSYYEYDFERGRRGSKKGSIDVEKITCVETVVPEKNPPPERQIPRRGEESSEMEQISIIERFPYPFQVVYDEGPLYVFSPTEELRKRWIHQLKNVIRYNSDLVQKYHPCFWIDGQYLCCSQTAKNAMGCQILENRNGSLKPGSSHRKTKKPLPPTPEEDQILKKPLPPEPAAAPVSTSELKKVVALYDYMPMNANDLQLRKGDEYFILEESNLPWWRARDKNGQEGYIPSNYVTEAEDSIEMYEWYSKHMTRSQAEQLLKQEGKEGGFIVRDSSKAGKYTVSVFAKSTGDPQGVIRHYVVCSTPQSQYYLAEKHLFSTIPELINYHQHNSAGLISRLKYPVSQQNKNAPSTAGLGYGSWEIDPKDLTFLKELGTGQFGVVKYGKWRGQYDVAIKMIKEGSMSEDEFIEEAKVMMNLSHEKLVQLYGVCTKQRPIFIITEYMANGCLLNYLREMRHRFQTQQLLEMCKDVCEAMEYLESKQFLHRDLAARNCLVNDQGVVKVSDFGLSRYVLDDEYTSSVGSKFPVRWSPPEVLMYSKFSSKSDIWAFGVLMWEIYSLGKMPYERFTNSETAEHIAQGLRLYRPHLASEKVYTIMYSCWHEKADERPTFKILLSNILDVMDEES

IC50, < 0.01 µM:
CN(C)c1ccc2c(c1)CCN(c1cccc(-c3cc(Nc4ccc(C(=O)N5CCOCC5)cn4)c4nccn4n3)c1CO)C2=O [II-1, 6-Dimethylamino-2-(2-hydroxymethyl-3-{8-[5-(morpholine-4-carbonyl)-pyridin-2-ylamino]-imidazo[1,2-b]pyridazin-6-yl}-phenyl)-3,4-dihydro-2H-isoquinolin-1-one]
O=C(c1ccc(Nc2cc(-c3cccc(N4CCc5cc(C6CC6)ccc5C4=O)c3CO)nn3ccnc23)nc1)N1CCOCC1 [II-2, 6-Cyclopropyl-2-(2-hydroxymethyl-3-{8-[5-(morpholine-4-carbonyl)-pyridin-2-ylamino]-imidazo[1,2-b]pyridazin-6-yl}-phenyl)-3,4-dihydro-2H-isoquinolin-1-one]
CN(C)c1ccc2c(c1)CCN(c1cccc(-c3cc(Nc4ccc(C(=O)N5CCOCC5)cn4)c4nccn4c3)c1CO)C2=O [II-4, 6-Dimethylamino-2-(2-hydroxymethyl-3-{8-[5-(morpholine-4-carbonyl)-pyridin-2-ylamino]-imidazo[1,2-a]pyridin-6-yl}-phenyl)-3,4-dihydro-2H-isoquinolin-1-one]
